The record followed here is US11339171B2, “MDM2 inhibitors” (Gan & Lee Pharmaceuticals, priority 2017, dated 2022).

Assay [1] relates to human osteosarcoma cell line SJSA-1. Briefly: Inhibition of proliferation of human osteosarcoma cell line SJSA-1 (DAPI staining, In Cell Analyzer). As to conditions: Homo sapiens, SJSA-1, 72 h, read-out: IC50 (nM), inhibitory activity on proliferation of human osteosarcoma cell line SJSA-1, SJSA-1, incubated 72 h.
A further assay concerns the target T1, MDM2 (Homo sapiens, UniProt Q00987).
T1 construct: made in house
Briefly: Inhibition test of MDM2-P53 (GST-MDM2, Biotin-P53, Anti-GST-Tb, SA-XL665). It is filed as binding. Put shortly:
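Compounds, serially diluted 5-fold (twelve concentrations), were shaken for 90 min at 25° C with a mix of GST-MDM2 (4 nM final), Biotin-P53, anti-GST-Tb and SA-XL665. Buffer: 1×PBS, 0.1% BSA, 5 mM DTT, 1 mM AEBSF; signal read on a microplate reader.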

T1 sequence (Q00987 whole entry): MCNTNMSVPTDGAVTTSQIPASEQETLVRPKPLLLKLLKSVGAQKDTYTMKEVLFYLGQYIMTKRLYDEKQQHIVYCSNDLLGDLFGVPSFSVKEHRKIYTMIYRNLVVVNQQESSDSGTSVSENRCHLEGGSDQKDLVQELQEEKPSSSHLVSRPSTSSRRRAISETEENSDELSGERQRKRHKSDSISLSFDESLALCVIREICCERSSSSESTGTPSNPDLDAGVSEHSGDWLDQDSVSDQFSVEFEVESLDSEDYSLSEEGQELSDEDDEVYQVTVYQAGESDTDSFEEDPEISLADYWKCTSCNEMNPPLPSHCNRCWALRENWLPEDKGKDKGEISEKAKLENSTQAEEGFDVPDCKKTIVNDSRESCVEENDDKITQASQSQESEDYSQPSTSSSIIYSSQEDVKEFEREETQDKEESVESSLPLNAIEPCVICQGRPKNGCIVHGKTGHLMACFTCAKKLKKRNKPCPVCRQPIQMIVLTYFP

With `COc1cc(OC2CC2)ncc1-c1nc2c(n1C(C)C)[C@@]1(C(=O)Nc3cc(Cl)ccc31)N(c1cc(Cl)ccc1C)C2=O` [Example S-110, (S)-6-chloro-5′-(5-chloro-2-methylphenyl)-2′-(6-cyclopropoxy-4-methoxypyridin-3-yl)-3′-isopropyl-3′H-spiro[dihydroindole-3,4′-pyrrolo[3,4-d]imidazole]-2,6′(5′H)-dione], the IC50 in assay [1] was 78 nM; on MDM2, 1.6 nM.
On to `COc1cc(N(C)C)ncc1-c1nc2c(n1C(C)C)[C@@]1(C(=O)Nc3cc(Cl)ccc31)N(c1cc(Cl)ccc1C)C2=O` [Example S-111, (S)-6-chloro-5′-(5-chloro-2-methylphenyl)-2′-(6-(dimethylamino)-4-methoxypyridin-3-yl)-3′-isopropyl-3′H-spiro[dihydroindole-3,4′-pyrrolo[3,4-d]imidazole]-2,6′(5′H)-dione], for which the IC50 in assay [1] worked out at 13 nM; against MDM2 it was 1.52 nM.
For the compound `COc1nc(N(C)C)ncc1-c1nc2c(n1C(C)C)[C@@]1(C(=O)Nc3cc(Cl)ccc31)N(c1cccc(Cl)c1)C2=O` [Example S-112, (S)-6-chloro-5′-(3-chlorophenyl)-2′-(2-(dimethylamino)-4-methoxypyrimidin-5-yl)-3′-isopropyl-3′H-spiro[dihydroindole-3,4′-pyrrolo[3,4-d]imidazole]-2,6′(5′H)-dione], the values for the IC50 (in assay [1]; against MDM2) were 90.6 nM and 1.15 nM, respectively.
For `COc1cc(N(C)C)ncc1-c1nc2c(n1C(C)C)[C@@]1(C(=O)Nc3cc(Cl)ccc31)N(c1cccc(Cl)c1)C2=O` [Example S-113, (S)-6-chloro-5′-(3-chlorophenyl)-2′-(6-(dimethylamino)-4-methoxypyridin-3-yl)-3′-isopropyl-3′H-spiro[dihydroindole-3,4′-pyrrolo[3,4-d]imidazole]-2,6′(5′H)-dione] the same measures were 26.7 nM and 1.25 nM.
As for `COc1nc(N2CCCC2)ncc1-c1nc2c(n1C(C)C)[C@@]1(C(=O)Nc3cc(Cl)ccc31)N(c1cc(Cl)ccc1C)C2=O` [Example S-114, (S)-6-chloro-5′-(5-chloro-2-methylphenyl)-3′-isopropyl-2′-(4-methoxy-2-(pyrrolidine-1-yl)pyrimidin-5-yl)-3′H-spiro[dihydroindole-3,4′-pyrrolo[3,4-d]imidazole]-2,6′(5′H)-dione], the IC50 in assay [1] amounted to 10.1 nM; on MDM2, 3.2 nM.
Taken in the same sequence, the figures for `COc1cc(C2CC2)ccc1-c1nc2c(n1C(C)C)[C@@]1(C(=O)Nc3cc(Cl)ccc31)N(c1cccc(Cl)c1)C2=O` [Example S-116, (S)-6-chloro-5′-(3-chlorophenyl)-2′-(4-cyclopropyl-2-methoxyphenyl)-3′-isopropyl-3′H-spiro[dihydroindole-3,4′-pyrrolo[3,4-d]imidazole]-2,6′(5′H)-dione] were 213 nM and 4.18 nM.
Turning to `COc1nc(N2CCC2)ncc1-c1nc2c(n1C(C)C)[C@@]1(C(=O)Nc3cc(Cl)ccc31)N(c1cc(Cl)ccc1C)C2=O` [Example S-117, (S)-2′-(2-(12zetidine-1-yl)-4-methoxypyrimidin-5-yl)-6-chloro-5′-(5-chloro-2-methylphenyl)-3′-isopropyl-3′H-spiro[dihydroindole-3,4′-pyrrolo[3,4-d]imidazole]-2,6′(5′H)-dione], the IC50 in assay [1] amounted to 14.4 nM; against MDM2, 2.15 nM.
In the case of `COc1nc(C)ncc1-c1nc2c(n1C(C)C)[C@@]1(C(=O)Nc3cc(Cl)ccc31)N(c1cc(Cl)ccc1C)C2=O` [Example S-118, (S)-6-chloro-5′-(5-chloro-2-methylphenyl)-3′-isopropyl-2′-(4-methoxy-2-methylpyrimidin-5-yl)-3′H-spiro[dihydroindole-3,4′-pyrrolo[3,4-d]imidazole]-2,6′(5′H)-dione], the IC50 in assay [1] turned out to be 107 nM; at MDM2 it was 3.51 nM.
Take `CCN(C)c1ncc(-c2nc3c(n2C(C)C)[C@@]2(C(=O)Nc4cc(Cl)ccc42)N(c2cc(Cl)ccc2C)C3=O)c(OC)n1` [Example S-119, (S)-6-chloro-5′-(5-chloro-2-methylphenyl)-2′-(2-(ethyl(methyl)amino)-4-methoxypyrimidin-5-yl)-3′-isopropyl-3′H-spiro[dihydroindole-3,4′-pyrrolo[3,4-d]imidazole]-2,6′(5′H)-dione]: the IC50 in assay [1] came out at 20 nM; against MDM2, 2.39 nM.
Regarding `COc1cc(OC(F)(F)F)ccc1-c1nc2c(n1C(C)C)[C@@]1(C(=O)Nc3cc(Cl)ccc31)N(c1cccc(Cl)c1)C2=O` [Example S-120, (S)-6-chloro-5′-(3-chlorophenyl)-3′-isopropyl-2′-(2-methoxy-4-(trifluoromethoxy)phenyl)-3′H-spiro[dihydroindole-3,4′-pyrrolo[3,4-d]imidazole]-2,6′(5′H)-dione], the IC50 is 364 nM in assay [1] and 9.01 nM at MDM2.
For the compound `COc1nc(C2CC2)ncc1-c1nc2c(n1C(C)C)[C@@]1(C(=O)Nc3cc(Cl)ccc31)N(c1cccc(Cl)c1)C2=O` [Example S-122, (S)-6-chloro-5′-(3-chlorophenyl)-2′-(2-cyclopropyl-4-methoxypyrimidin-5-yl)-3′-isopropyl-3′H-spiro[dihydroindole-3,4′-pyrrolo[3,4-d]imidazole]-2,6′(5′H)-dione], the IC50 in assay [1] worked out at 117 nM; against MDM2, 2.76 nM.
Taken in the same sequence, the figures for `CCOc1ncc(-c2nc3c(n2C(C)C)[C@@]2(C(=O)Nc4cc(Cl)ccc42)N(c2cccc(Cl)c2)C3=O)c(OC)n1` [Example S-123, (S)-6-chloro-5′-(3-chlorophenyl)-2′-(2-ethoxy-4-methoxypyrimidin-5-yl)-3′-isopropyl-3′H-spiro[dihydroindole-3,4′-pyrrolo[3,4-d]imidazole]-2,6′(5′H)-dione] were 321 nM and 2.11 nM.
Taken in the same sequence, the figures for `COc1nc(OC(C)C)ncc1-c1nc2c(n1C(C)C)[C@@]1(C(=O)Nc3cc(Cl)ccc31)N(c1cccc(Cl)c1)C2=O` [Example S-124, (S)-6-chloro-5′-(3-chlorophenyl)-2′-(2-isopropoxy-4-methoxypyrimidin-5-yl)-3′-isopropyl-3′H-spiro[dihydroindole-3,4′-pyrrolo[3,4-d]imidazole]-2,6′(5′H)-dione] were 129 nM and 2.91 nM.
`COc1nc(OC(C)C)ncc1-c1nc2c(n1C(C)C)[C@@]1(C(=O)Nc3cc(Cl)ccc31)N(c1cc(Cl)ccc1C)C2=O` [Example S-126, (S)-6-chloro-5′-(5-chloro-2-methylphenyl)-2′-(2-isopropoxy-4-methoxypyrimidin-5-yl)-3′-isopropyl-3′H-spiro[dihydroindole-3,4′-pyrrolo[3,4-d]imidazole]-2,6′(5′H)-dione]: the figures for the IC50 (in assay [1]; against MDM2) were 79.6 nM and 1.52 nM, respectively.
In the case of `CCOc1ncc(-c2nc3c(n2C(C)C)[C@@]2(C(=O)Nc4cc(Cl)ccc42)N(c2cc(Cl)ccc2C)C3=O)c(OC)n1` [Example S-127, (S)-6-chloro-5′-(5-chloro-2-methylphenyl)-2′-(2-ethoxy-4-methoxypyrimidin-5-yl)-3′-isopropyl-3′H-spiro[dihydroindole-3,4′-pyrrolo[3,4-d]imidazole]-2,6′(5′H)-dione], the IC50 stood at 83.2 nM in assay [1] and 2.76 nM on MDM2.
Take `COc1cc(C#N)ccc1-c1nc2c(n1C(C)C)[C@@]1(C(=O)Nc3cc(Cl)ccc31)N(c1cccc(Cl)c1)C2=O` [Example S-128, (S)-4-(6-chloro-5′-(3-chlorophenyl)-3′-isopropyl-2,6′-dioxo-5′,6′-dihydro-3′H-spiro[dihydroindole-3,4′-pyrrolo[3,4-d]imidazole]-2′-yl)-3-methoxybenzonitrile]: the figures for the IC50 (in assay [1]; on MDM2) were 145 nM and 1.09 nM, respectively.
For `COc1cc(C(F)(F)F)ccc1-c1nc2c(n1C(C)C)[C@@]1(C(=O)Nc3cc(Cl)ccc31)N(c1cccc(Cl)c1)C2=O` [Example S-129, (S)-6-chloro-5′-(3-chlorophenyl)-3′-isopropyl-2′-(2-methoxy-4-(trifluoromethyl)phenyl)-3′H-spiro[dihydroindole-3,4′-pyrrolo[3,4-d]imidazole]-2,6′(5′H)-dione] the same measures were 146 nM and 3.84 nM.
In the case of `COc1nc(OC(C)C)ncc1-c1nc2c(n1C(C)C)[C@@]1(C(=O)Nc3cc(Cl)ccc31)N(c1cc(Cl)cnc1C)C2=O` [Example S-136, (S)-6-chloro-5′-(5-chloro-2-methylpyridin-3-yl)-2′-(2-isopropoxy-4-methoxypyrimidin-5-yl)-3′-isopropyl-3′H-spiro[dihydroindole-3,4′-pyrrolo[3,4-d]imidazole]-2,6′(5′H)-dione], the values for the IC50 (in assay [1]; at MDM2) were 108 nM and 2.35 nM, respectively.
Regarding `CCOc1cc(OC)c(-c2nc3c(n2C(C)C)[C@@]2(C(=O)Nc4cc(Cl)ccc42)N(c2cc(F)cc(Cl)c2)C3=O)cn1` [Example S-139, (S)-6-chloro-5′-(3-chloro-5-fluorophenyl)-2′-(6-ethoxy-4-methoxypyridin-3-yl)-3′-isopropyl-3′H-spiro[dihydroindole-3,4′-pyrrolo[3,4-d]imidazole]-2,6′(5′H)-dione], the values for the IC50 (in assay [1]; against MDM2) were 50.7 nM and 1.36 nM, respectively.
On to `COc1nc(OCC(F)(F)F)ncc1-c1nc2c(n1C(C)C)[C@@]1(C(=O)Nc3cc(Cl)ccc31)N(c1cc(Cl)ccc1C)C2=O` [Example S-141, (S)-6-chloro-5′-(5-chloro-2-methylphenyl)-3′-isopropyl-2′-(4-methoxy-2-(2,2,2-trifluoroethoxy)pyrimidin-5-yl)-3′H-spiro[dihydroindole-3,4′-pyrrolo[3,4-d]imidazole]-2,6′(5′H)-dione], for which the IC50 in assay [1] is 73.6 nM; against MDM2 it was 3.42 nM.
